Series [1] relates to Escherichia coli. Put plainly: Additive antibacterial activity against rifampicin resistant Escherichia coli ATCC 25922 assessed as fractional inhibitory concentration index at 0.25 to 4 times MIC incubated for 20 hrs in presence of rifampicin by checkerboard assay. Format: functional.
Series [2] has as its system Staphylococcus aureus. Put plainly: Antibacterial activity against Staphylococcus aureus ATCC 25923 assessed as inhibition of bacterial growth upto 20 ug/ml pretreated with chymotrypsin for 6 hrs and measured after 18 hrs by absorbance based method. Format: functional, organism-based. The settings on record: dose <= 20.0 µg/ml, time 24.0 hrs.
Series [3] concerns Escherichia coli. Put plainly: Antibacterial activity against Escherichia coli ATCC 25922 assessed as inhibition of bacterial growth incubated for 20 hrs in presence of MgCl2 by broth microdilution method (reference value: 16 microM). Format: functional. In general terms: Dilution methods test growth across graded concentrations, often in twofold steps.
Series [4] can be described thus: Systemic toxicity in male BALB/c mouse assessed as hepatocyte hemorrhage at 109.31 mg/kg, ip administered as single dose by H and E staining based analysis. The settings on record: hepatocytes. Format: organism-based.
Series [5] has as its system Staphylococcus aureus. Put plainly: Additive antibacterial activity against rifampicin resistant Staphylococcus aureus ATCC 25923 assessed as fractional inhibitory concentration index at 0.25 to 4 times MIC incubated for 20 hrs in presence of rifampicin by checkerboard assay. Format: functional.
The test system of series [6] is Escherichia coli. Kind of series: Antibacterial activity against Escherichia coli ATCC 25922 assessed as inhibition of bacterial growth incubated for 20 hrs in presence of ZnCl2 by broth microdilution method (reference value: 16 microM). Format: functional.
Series [7] has as its system Staphylococcus aureus. Kind of series: Antibacterial activity against Staphylococcus aureus ATCC 25923 assessed as inhibition of bacterial growth upto 200 ug/ml pretreated with trypsin for 6 hrs and measured after 18 hrs by absorbance based method. Format: functional, organism-based. The settings on record: dose <= 200.0 µg/ml, time 24.0 hrs.
The test system of series [8] is Escherichia coli. Put plainly: Additive antibacterial activity against Escherichia coli ATCC 25922 assessed as fractional inhibitory concentration index at 0.25 to 4 times MIC incubated for 20 hrs in presence of rifampicin by checkerboard assay. Format: functional.
In series [9] the test system is Staphylococcus aureus. Kind of series: Bactericidal activity against Staphylococcus aureus ATCC 25923 assessed as elimination of bacteria at 2 times MIC measured after >6 hrs by time kill assay. Format: functional, organism-based.
The subject of series [10] is Escherichia coli. Put plainly: Antibacterial activity against Escherichia coli ATCC 25922 assessed as inhibition of bacterial growth incubated for 20 hrs in presence of ZnCl2 by broth microdilution method (reference value: 4 microM). Format: functional, organism-based.
Series [11] has as its system Staphylococcus aureus. Kind of series: Additive antibacterial activity against Staphylococcus aureus ATCC 25923 assessed as fractional inhibitory concentration index at 0.25 to 4 times MIC incubated for 20 hrs in presence of rifampicin by checkerboard assay. Format: functional, organism-based.
The subject of series [12] is Cell membrane. Kind of series: Induction of cytoplasmic membrane depolarization in Staphylococcus aureus assessed as increase in fluorescence intensity at 0.5 to 4 times MIC measured upto 13 mins by DISC3-5 dye based fluorescence analysis.
Series [13] relates to Escherichia coli. Kind of series: Antibacterial activity against Escherichia coli ATCC 25922 assessed as inhibition of bacterial growth incubated for 20 hrs in presence of MgCl2 by broth microdilution method (reference value: 4 microM). Format: functional, organism-based.
In series [14] the test system is Escherichia coli. Kind of series: Antibacterial activity against Escherichia coli ATCC 25922 assessed as inhibition of bacterial growth incubated for 20 hrs in presence of NaCl by broth microdilution method (reference value: 4 microM). Format: functional, organism-based.
The subject of series [15] is Escherichia coli. Kind of series: […] activity against Escherichia coli ATCC 25922 infected in male BALB/c pulmonary infection model assessed as reduction in liver bleeding at 10 mg/kg, ip administered at 3 and 12 hrs post infection and measured 24 hrs post infection by H and E staining based analysis. The settings on record: time 12-21 hrs. Format: functional, organism-based.

For series [16], the system named is Cell membrane. Kind of series: Induction of cell membrane damage in Staphylococcus aureus assessed as PI uptake at 2 times MIC measured after 2 hrs by PI dye based flow cytometry analysis (reference value: 28.8%). Format: cell membranes. (In flow cytometry, cells or beads pass a laser one at a time.)
For series [17], the system named is Escherichia coli. Put plainly: Antibacterial activity against Escherichia coli ATCC 25922 assessed as inhibition of bacterial growth incubated for 20 hrs in presence of FeCl3 by broth microdilution method (reference value: 8 microM). Format: functional.
Series [18] in a line: Systemic toxicity in male BALB/c mouse assessed as renal cell necrosis at 105.41 mg/kg, ip administered as single dose by H and E staining based analysis. Format: organism-based. The settings on record: in vivo.
The subject of series [19] is Staphylococcus aureus. Put plainly: Antibacterial activity against Staphylococcus aureus ATCC 25923 assessed as inhibition of bacterial growth incubated for 20 hrs in presence of NaCl by broth microdilution method (reference value: 8 microM). Format: functional.
In series [20] the test system is Staphylococcus aureus. Put plainly: Antibacterial activity against Staphylococcus aureus ATCC 25923 assessed as inhibition of bacterial growth incubated for 20 hrs in presence of FeCl3 by broth microdilution method (reference value: 8 microM). Format: functional.
The test system of series [21] is Staphylococcus aureus. Put plainly: Antibacterial activity against Staphylococcus aureus ATCC 25923 assessed as inhibition of bacterial growth incubated for 20 hrs in presence of KCl by broth microdilution method (reference value: 8 microM). Format: functional.
In series [22] the test system is Escherichia coli. Put plainly: […] activity against Escherichia coli ATCC 25922 infected in male BALB/c pulmonary infection model assessed as reduction in bacterial colonies at 5 to 10 mg/kg, ip administered at 3 and 12 hrs post infection and measured 24 hrs post infection. Format: functional, organism-based. The settings on record: dose 5-10 mg/kg, time 12-21 hrs.

The source made the active and inactive calls. The calls are words filed in the database; no cut-off is given here. Where a SMILES comes first, the peptide text is derived from it. Side-chain parts run from the residue outwards.

Turning to `N=C(N)NCCC[C@H](NC(=O)[C@@H](N)CCCNC(=N)N)C(=O)NCCCC[C@H](NC(=O)[C@H](CCCNC(=N)N)NC(=O)[C@@H](N)CCCNC(=N)N)C(=O)N[C@@H](Cc1c[nH]c2ccccc12)C(=O)N[C@@H](Cc1c[nH]c2ccccc12)C(=O)N[C@@H](Cc1c[nH]c2ccccc12)C(=O)N[C@@H](Cc1c[nH]c2ccccc12)C(N)=O` (H-RRK([Arg-Arg])WWWW-NH2), the “fractional inhibitory concentration index (FICI)” value in the series on Escherichia coli [1], in the series on Staphylococcus aureus [5] and in the series with Escherichia coli [8] was 0.563 throughout. Moreover, the result in the series with Staphylococcus aureus [2] and in the series with Staphylococcus aureus [7] was Active. The minimum inhibitory concentration (MIC) (as a rule, the lowest concentration that inhibits growth of the organism) with Escherichia coli [3] was 16 µM; in the series with Escherichia coli [6], 8 µM. In addition, in series [4], the Activity entry is recorded as “Non-Toxic”.
Consider POLYMYXIN B, for which the Activity amounted to 100% in the series with Staphylococcus aureus [9] and 76.2% in the series with Cell membrane [16]. For the same compound, the MIC was 8 µM in the series on Escherichia coli [10], 2 µM with Escherichia coli [13] and 4 µM with Escherichia coli [14]. The fractional inhibitory concentration index (FICI) in the series with Staphylococcus aureus [11] was found to be 0.563. Further, the result with Cell membrane [12] and in the series on Escherichia coli [15] was inactive.
As for `N=C(N)NCCC[C@H](NC(=O)[C@H](CCCNC(=N)N)NC(=O)[C@H](CCCNC(=N)N)NC(=O)[C@@H](N)CCCNC(=N)N)C(=O)N[C@@H](CCCCN)C(=O)N[C@@H](Cc1c[nH]c2ccccc12)C(=O)N[C@@H](Cc1c[nH]c2ccccc12)C(=O)N[C@@H](Cc1c[nH]c2ccccc12)C(=O)N[C@@H](Cc1c[nH]c2ccccc12)C(N)=O`, the MIC is 16 µM with Escherichia coli [17], 8 µM in the series on Staphylococcus aureus [19], 8 µM in the series on Staphylococcus aureus [20] and 8 µM with Staphylococcus aureus [21]. Also, the Activity entry in series [18] is “Non-Toxic”. For the same compound, in the series on Escherichia coli [22], the outcome was Active.

(Values after ChEMBL document CHEMBL5500371, “Arginine and tryptophan-rich dendritic antimicrobial peptides that disrupt membranes for bacterial infection in vivo” (Eur J Med Chem, 2024).)
